The record followed here is publication PMC7229842, “Molecular basis of the multifaceted functions of human leucyl-tRNA synthetase in protein synthesis and beyond” (Nucleic Acids Research, 2020).

Assay [1] has as its target T1, Human cytosolic leucyl-tRNA synthetase (hcLRS) (Homo sapiens, UniProt Q9P2J5).
T1 construct: gene LARS1
The assay can be described thus: X-ray co-crystal structure at […] Å (as AN6426-AMP); aminoacylation inhibition IC50. It counts as biochemical.
Target sequence in this assay (Q9P2J5 whole entry): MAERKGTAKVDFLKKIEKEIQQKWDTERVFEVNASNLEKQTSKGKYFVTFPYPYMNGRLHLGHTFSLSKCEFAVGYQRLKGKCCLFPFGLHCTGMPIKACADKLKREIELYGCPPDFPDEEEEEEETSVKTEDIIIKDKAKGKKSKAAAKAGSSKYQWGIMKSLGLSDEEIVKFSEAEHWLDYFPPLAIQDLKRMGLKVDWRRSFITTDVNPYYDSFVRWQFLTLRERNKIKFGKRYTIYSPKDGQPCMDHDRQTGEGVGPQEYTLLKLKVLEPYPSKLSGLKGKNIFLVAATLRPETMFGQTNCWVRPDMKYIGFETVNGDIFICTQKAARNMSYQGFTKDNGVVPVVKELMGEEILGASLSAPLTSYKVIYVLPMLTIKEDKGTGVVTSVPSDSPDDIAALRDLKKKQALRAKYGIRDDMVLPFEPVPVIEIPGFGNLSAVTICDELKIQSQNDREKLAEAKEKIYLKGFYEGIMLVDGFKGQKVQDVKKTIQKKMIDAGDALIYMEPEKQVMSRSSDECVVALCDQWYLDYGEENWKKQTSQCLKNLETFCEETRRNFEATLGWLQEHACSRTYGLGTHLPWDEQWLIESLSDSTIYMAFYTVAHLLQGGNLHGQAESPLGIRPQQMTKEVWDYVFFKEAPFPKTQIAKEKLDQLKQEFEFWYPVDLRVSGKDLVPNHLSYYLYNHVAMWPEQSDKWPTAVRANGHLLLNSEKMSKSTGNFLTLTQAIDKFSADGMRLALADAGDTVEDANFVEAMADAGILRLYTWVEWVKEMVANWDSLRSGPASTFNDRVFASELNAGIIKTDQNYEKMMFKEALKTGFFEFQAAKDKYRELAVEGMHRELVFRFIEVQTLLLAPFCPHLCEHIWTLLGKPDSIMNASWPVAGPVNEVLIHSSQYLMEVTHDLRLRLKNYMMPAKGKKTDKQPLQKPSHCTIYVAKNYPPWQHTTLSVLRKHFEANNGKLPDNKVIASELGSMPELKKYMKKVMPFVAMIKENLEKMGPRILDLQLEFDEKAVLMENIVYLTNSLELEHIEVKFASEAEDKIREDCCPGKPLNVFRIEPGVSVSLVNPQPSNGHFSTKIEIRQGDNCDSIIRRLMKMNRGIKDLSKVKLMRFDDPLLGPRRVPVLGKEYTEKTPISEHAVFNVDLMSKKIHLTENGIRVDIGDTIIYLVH

Assay [2] deals with T1, Human cytosolic leucyl-tRNA synthetase (hcLRS). In words: aminoacylation assay with [3H]-Leu and tRNA^Leu(CAG), purified hcLRS. It counts as biochemical.
Target sequence in this assay (Q9P2J5 whole entry): as above
Assay [3] has the same target. In words: X-ray co-crystal structure, […] Å. It counts as binding.
Target sequence in this assay (Q9P2J5 1-1070): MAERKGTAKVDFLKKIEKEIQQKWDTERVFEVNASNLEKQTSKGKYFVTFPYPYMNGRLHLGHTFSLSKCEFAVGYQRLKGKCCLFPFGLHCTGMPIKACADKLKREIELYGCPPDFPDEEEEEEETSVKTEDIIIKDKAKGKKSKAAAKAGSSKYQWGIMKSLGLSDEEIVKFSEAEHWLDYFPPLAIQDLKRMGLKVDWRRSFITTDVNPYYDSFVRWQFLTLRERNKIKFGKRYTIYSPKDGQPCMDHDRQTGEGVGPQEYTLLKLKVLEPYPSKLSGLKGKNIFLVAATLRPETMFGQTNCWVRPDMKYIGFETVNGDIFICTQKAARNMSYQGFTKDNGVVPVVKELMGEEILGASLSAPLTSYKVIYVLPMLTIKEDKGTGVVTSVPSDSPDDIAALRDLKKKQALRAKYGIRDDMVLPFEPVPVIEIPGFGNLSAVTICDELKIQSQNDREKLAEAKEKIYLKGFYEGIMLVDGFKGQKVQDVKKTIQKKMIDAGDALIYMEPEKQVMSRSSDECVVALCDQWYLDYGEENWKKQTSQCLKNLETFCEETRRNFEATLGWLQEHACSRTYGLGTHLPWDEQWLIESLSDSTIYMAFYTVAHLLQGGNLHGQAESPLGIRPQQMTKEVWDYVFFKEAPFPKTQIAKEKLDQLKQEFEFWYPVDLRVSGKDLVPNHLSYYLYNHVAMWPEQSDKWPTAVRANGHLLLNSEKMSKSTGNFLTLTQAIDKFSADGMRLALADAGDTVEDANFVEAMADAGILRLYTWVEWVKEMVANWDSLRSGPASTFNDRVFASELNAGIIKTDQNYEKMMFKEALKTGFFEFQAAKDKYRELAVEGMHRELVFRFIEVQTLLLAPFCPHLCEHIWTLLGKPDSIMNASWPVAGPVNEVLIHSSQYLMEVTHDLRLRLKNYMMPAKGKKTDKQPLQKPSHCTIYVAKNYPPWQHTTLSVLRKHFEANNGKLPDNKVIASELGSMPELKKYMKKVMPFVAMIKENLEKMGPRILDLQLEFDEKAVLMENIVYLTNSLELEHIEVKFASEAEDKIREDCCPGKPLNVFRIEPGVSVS

Structures are written as SMILES.

Usually IC50 stands for the concentration needed to halve the response being measured. A lower IC50 goes with higher potency. `CCOc1ccc(Cl)c2c1B(O)OC2CN` (stereo not drawn) [AN6426] yielded an IC50 in assay [1] of 7.7 µM. In turn, `OB1OCc2cc(F)ccc21` [tavaborole] yielded an IC50 in assay [2] of 14.8 µM. Turning to `CC(C)C[C@H](N)C(=O)NS(=O)(=O)OC[C@H]1O[C@@H](n2cnc3c(N)ncnc32)[C@H](O)[C@@H]1O` [LeuAMS], the “X-ray co-crystal structure, 2.5 Å” value in assay [3] was “LeuAMS, a stable analog of LeuAMP, was bound in the aminoacylation active site in our structure”.
